Measurements: patent US9420793B2, “Antiparasitic compounds” (Avista Pharma Solutions, priority 2015, dated 2016)
“And” between values parts separate entries of the source, which are not always exact repeats. Identical values can stand only once. Like-named read-outs stand apart in the source and are kept apart here.

Columns and labels:
[1] = test system: Ctenocephalides felis; conditions: for Ingestion EC50: fleas
Description: In Vitro Evaluation of Ingestion Activity Against Fleas (Ctenocephalides Felis)
For flea ingestion tests, an aliquot of each compound stock was added to organic bovine blood contained in an artificial feeding container, with a final DMSO concentration of 0.5%. Ten newly emerged unfed fleas, Ctenocephalides felis, from a laboratory colony, 0-7 days old, were aspirated into a chamber and exposed to the appropriate feeding container and held in a controlled environment at 35° C. Fleas were evaluated for % mortality at 24, 48, and 72 hours post infestation. Fleas showing normal movement and/or jumping ability were considered viable and those showing no movement after tapping the vials were scored as dead. The compound+blood mixture was replaced every 24 hours.

[2] = test system: Dirofilaria immitis microfilariae; experiment: Dirofilaria immitis microfilariae motility assay; conditions: 72 h, read-out: concentration at which active, microfilariae motility
[3] = test system: I. scapularis; experiment: In vitro tick contact assay, comparison with standards
Description: (§1) A solution of the test compounds was used to coat the inner wall of glass vials and to treat two filter papers. Once dried, one filter paper was placed in the cap of the vial and the other in the bottom of the vial. Each treated vial was infested with 10 ticks. Contact of the ticks with residues was induced by holding the vials in a controlled environment and assessment was performed at 12, 24 and 48 hours after application in comparison with untreated glass vials and solvent-treated glass vials. Compounds were tested in duplicate and two separate trials (n=4).

[4] = test system: R. sanguineus; experiment: as above
Description: as §1

[5] = test system: A. americanum; experiment: as above
Description: as §1

[6] = test system: D. variabilis; experiment: as above
Description: as §1

[7] = test system: Aedes aegypti; experiment: In vitro evaluation of ingestion activity against mosquitoes; conditions: at 20 hours, compound in bovine blood, read-out: concentration at which active, mosquito ingestion
Description: In Vitro Evaluation of Ingestion Activity Against Mosquitoes (Aedes aegypti)
A solution of test compounds is added to bovine blood contained in a feeding chamber to reach the desired final concentration. Blood spiked with DMSO is prepared to serve as control. Adult female mosquitoes are introduced at the bottom of the chamber and allowed to feed on blood mixtures containing DMSO or test compounds for 30 minutes. Fully engorged mosquitoes are sorted into clean chambers after the blood meal and monitored for survival over 3 days. Replicates containing 10 mosquitoes are performed with each test compound concentration and results calculated as % mortality at specific time points.

[8] = test system: Ctenocephalides felis; experiment: Ctenocephalides felis residual contact assay; conditions: for Contact EC50: 48 h, fleas
Description: Ctenocephalides felis Residual Contact Assay
A solution of the test compounds, individually and in combination was dispensed onto a substrate placed into a glass vial. The treated surface was allowed to dry before infesting each vial with 10 adult Ctenocephalides felis. The treated vials were held in a controlled environment and assessment was performed at 6, 24 and 48 hours after application in comparison with untreated controls glass vials and solvent-treated glass vials. Compounds were tested in duplicate and two separate trials (n=4).

SMILES	Ingestion EC50 ([1]; 2 h) [ppm]	Ingestion EC50 ([1]; 24 h) [ppm]	flea potency by ingestion relative to commercially available standards ([1]; versus fluralaner, afoxolaner, (+/−)sarolaner)	minimal effective concentration [2] [µM]	I. scapularis Contact EC50 ([3]; 24 h) [ppm]	I. scapularis Contact EC50 ([3]; 48 h) [ppm]	R. sanguineus Contact EC50 ([4]; 24 h) [ppm]	R. sanguineus Contact EC50 ([4]; 48 h) [ppm]	A. americanum Contact EC50 ([5]; 24 h)	A. americanum Contact EC50 ([5]; 48 h) [ppm]	D. variabilis Contact EC50 ([6]; 24 h) [ppm]	D. variabilis Contact EC50 ([6]; 48 h) [ppm]	minimal effective concentration [7] [µg/mL]	Contact EC50 [8] [ppm]	flea potency by contact relative to commercially available standards ([8]; versus fluralaner, afoxolaner)
O=C(CC(F)(F)F)N1CC2(C1)OCc1cc(C3=NSC(c4cc(Cl)c(F)c(Cl)c4)(C(F)(F)F)C3)ccc12 (centres unmarked) [Compound 1, 1-[6-[5-(3,5-dichloro-4-fluoro-phenyl)-5-(trifluoromethyl)-4H-isothiazol-3-yl]spiro[1H-isobenzofuran-3,3′-azetidine]-1′-yl]-3,3,3-trifluoro-propan-1-one]	2.6 ± 0.3	0.20 ± 0.10	comparable potency by ingestion	< 10	2.0 ± 0.4	0.04 ± 0.02	17.0 ± 3.8	4.6 ± 3.0	13.5 ± 5.1 ppm	2.7 ± 0.4	12.2 ± 0.6	5.0 ± 1.6	< 1	29.0 ± 0.3	superior potency by contact
O=C(CNC(=O)c1ccc(C2=NOC(c3cc(Cl)cc(C(F)(F)F)c3)(C(F)(F)F)C2)c2ccccc12)NCC(F)(F)F (centres unmarked) [Afoxolaner]	6.0 ± 2.9	0.13 ± 0.05			17.8 ± 5.9	5.31 ± 1.8	>50	20.2 ± 5.0	31.6 ppm and > 50 ppm	11.3 ± 2.3	>50	12.35 ± 0.5		>50	
